Measured values from ChEMBL document CHEMBL5316353, “Antitarget, Anti-SARS-CoV-2 Leads, Drugs, and the Drug Discovery-Genetics Alliance Perspective” (J Med Chem, 2023).

Tests used:
[1] = Cytotoxicity in African green monkey Vero cells by MTT assay; assay type: toxicity, cell-based; settings: chlorocebus sabaeus
SARS-CoV [2] = experiment: Antiviral activity against SARS-CoV-1 infected in HAE cells assessed as inhibition of viral replication; assay type: functional, organism-based; settings: Severe acute respiratory syndrome-related coronavirus
[3] = Inhibition of MERS-CoV MPro; parameters: species or system Middle East respiratory syndrome-related coronavirus
SARS-CoV-2 [4] = experiment: Antiviral activity against SARS-CoV-2 Omicron assessed as reduction of viral growth; assay type: functional, organism-based; settings: Severe acute respiratory syndrome coronavirus 2, Omicron
SARS-CoV-2 [5] = experiment: Antiviral activity against SARS-CoV-2 Beta assessed as reduction of viral growth; assay type: functional, organism-based; settings: Severe acute respiratory syndrome coronavirus 2, Beta
SARS-CoV-2 [6] = experiment: Antiviral activity against SARS-CoV-2 Gamma assessed as reduction of viral growth; assay type: functional, organism-based; settings: Severe acute respiratory syndrome coronavirus 2, Gamma
SARS-CoV-2 [7] = experiment: Antiviral activity against SARS-CoV-2 Delta assessed as reduction of viral growth; assay type: functional, organism-based; settings: Severe acute respiratory syndrome coronavirus 2, Delta
Procathepsin L = Procathepsin L (Homo sapiens, UniProt P07711); experiment: Inhibition of recombinant cathepsin L (unknown origin)
Chain of Procathepsin L (P07711 whole entry): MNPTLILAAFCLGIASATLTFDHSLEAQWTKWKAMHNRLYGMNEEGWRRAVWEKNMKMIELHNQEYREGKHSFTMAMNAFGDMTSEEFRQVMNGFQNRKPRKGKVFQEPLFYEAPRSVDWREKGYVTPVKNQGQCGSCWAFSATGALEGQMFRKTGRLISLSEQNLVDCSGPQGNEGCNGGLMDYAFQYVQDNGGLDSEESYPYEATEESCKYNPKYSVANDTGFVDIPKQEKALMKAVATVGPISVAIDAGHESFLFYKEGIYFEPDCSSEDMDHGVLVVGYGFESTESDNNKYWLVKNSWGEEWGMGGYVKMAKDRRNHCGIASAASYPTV

[8] = biological target: Replicase polyprotein 1ab (Severe acute respiratory syndrome coronavirus 2, UniProt P0DTD1); experiment: Inhibition of SARS-CoV-2 MPro
SARS-CoV-2 [9] = experiment: microbe, parasite or virus in culture; settings: Severe acute respiratory syndrome coronavirus 2
SARS-CoV-2 [10] = assay type: functional, organism-based; settings: Severe acute respiratory syndrome coronavirus 2, HPAEpiC
SARS-CoV-2 [11] = assay type: functional, organism-based; settings: Severe acute respiratory syndrome coronavirus 2, Huh-7
Human coronavirus 229E = experiment: microbe, parasite or virus in culture; settings: MRC5
SARS-CoV [12] = assay type: functional, organism-based, Vero E6; settings: Severe acute respiratory syndrome-related coronavirus, Vero C1008
[13] = test system: Middle East respiratory syndrome-related coronavirus; experiment: Antiviral activity against MERS-CoV assessed as inhibition of viral growth by cell-cell fusion assay; assay type: functional, organism-based
[14] = test system: Middle East respiratory syndrome-related coronavirus; assay type: functional, organism-based, Vero E6; settings: Vero C1008
SARS-CoV-2 [15] = experiment: microbe, parasite or virus in culture; settings: Severe acute respiratory syndrome coronavirus 2; remark: listed apart in the source

## CCC(CC)COC(=O)[C@H](C)NP(=O)(OC[C@@H]1O[C@](C#N)(c2ccc3c(N)ncnn23)[C@@H](O)[C@H]1O)Oc1ccccc1 (some centres not stated)
[1]
  CC50: > 100 µM
SARS-CoV [2]
  IC50: 69 nM

## CC(C)(C)OC(=O)Nc1cccn([C@@H](CC2CC2)C(=O)N[C@@H](C[C@@H]2CCNC2=O)C(=O)C(=O)NCc2ccccc2)c1=O
[3]
  IC50: 580 nM

## COc1ccc(C(=O)Nc2cccc(C(F)(F)F)c2)cc1Nc1nc(-c2cccnc2)c2[nH]ccc2n1
SARS-CoV-2 [4]
  EC50: < 6.9 nM
SARS-CoV-2 [5]
  EC50: 12.4 nM
SARS-CoV-2 [6]
  EC50: < 6.9 nM
SARS-CoV-2 [7]
  EC50: < 6.9 nM

## CCOC(=O)[C@H]1OC1C(=O)N[C@@H](CC(C)C)C(=O)NCCC(C)C (some centres not stated)
Procathepsin L
  IC50: 180 nM

## O=C[C@H](C[C@@H]1CCNC1=O)NC(=O)[C@H](Cc1ccccc1)NC(=O)c1cc2ccccc2[nH]1
[8]
  IC50: 34 nM

## CC(=O)N[C@@H]1[C@H](Oc2c3cc4cc2Oc2ccc(cc2Cl)[C@@H](O[C@@H]2O[C@@H](CO)[C@@H](O)[C@H](O)[C@@H]2NC(C)=O)[C@@H]2NC(=O)[C@H](NC(=O)[C@@H]4NC(=O)[C@H]4NC(=O)[C@@H](Cc5ccc(c(Cl)c5)O3)NC(=O)[C@H](N)c3ccc(O)c(c3)Oc3cc(O)cc4c3)c3ccc(O)c(c3)-c3c(O[C@H]4O[C@H](CO)[C@@H](O)[C@@H](O)[C@@H]4O)cc(O)cc3[C@@H](C(=O)O)NC2=O)O[C@@H](CO)[C@@H](O)[C@@H]1O
SARS-CoV-2 [9]
  IC50: 1600 nM

## CC1(C)[C@@H]2[C@@H](C(=O)N[C@H](C=O)C[C@@H]3CCNC3=O)N(C(=O)COc3ccc(OC(F)(F)F)cc3)C[C@@H]21
SARS-CoV-2 [10]
  EC50: 1.2 nM
SARS-CoV-2 [11]
  EC50: 35.3 nM

## C[C@@H](OC(C)(C)C)[C@H](NC(=O)OCc1ccccc1)C(=O)N[C@@H](CC1CCCCC1)C(=O)N[C@H](C=O)C[C@@H]1CCNC1=O
Human coronavirus 229E
  IC50: 140 nM
SARS-CoV [12]
  IC50: 600 nM

## CC[C@H](C)[C@H](NC(=O)[C@H](Cc1ccc(O)cc1)NC(=O)[C@H](CO)NC(=O)[C@H](CCC(=O)O)NC(=O)[C@H](CC(N)=O)NC(=O)[C@H](CC(C)C)NC(=O)[C@H](C)NC(=O)[C@H](CCCCN)NC(=O)[C@@H](NC(=O)[C@@H](NC(=O)[C@H](CCC(N)=O)NC(=O)[C@H](CCC(N)=O)NC(=O)[C@H](CC(C)C)NC(=O)[C@H](CO)NC(=O)[C@H](CC(C)C)NC(=O)[C@H](CCSC)NC(=O)[C@H](CCC(=O)O)NC(=O)[C@H](Cc1ccc(O)cc1)NC(=O)[C@@H](NC(=O)[C@H](CC(C)C)NC(=O)[C@H](CC(=O)O)NC(=O)[C@H](CC(C)C)NC(=O)[C@H](CC(C)C)NC(=O)[C@@H](NC(=O)[C@@H](NC(=O)[C@H](CC(N)=O)NC(=O)[C@@H](NC(=O)[C@H](CCC(N)=O)NC(=O)[C@@H](NC(=O)[C@H](CC(C)C)NC(=O)[C@@H](N)CO)[C@@H](C)O)[C@@H](C)CC)[C@@H](C)O)[C@@H](C)O)[C@@H](C)O)C(C)C)C(C)C)C(=O)N[C@@H](CC(=O)O)C(=O)N[C@@H](CC(C)C)C(=O)N[C@@H](CCCCN)C(=O)N[C@@H](CCCCN)C(=O)N[C@@H](CCC(=O)O)C(=O)N[C@@H](CC(C)C)C(=O)O
[13]
  IC50: 500 nM
[14]
  IC50: 600 nM

## CN(C)C(=O)COC(=O)Cc1ccc(OC(=O)c2ccc(NC(=N)N)cc2)cc1 [CAMOSTAT]
SARS-CoV-2 [15]
  EC50: 700 nM
